Measurements from patent US8003785B2 (Takeda Pharmaceutical Company Limited, priority 2008, dated 2011).

These molecules were tested against T1, PLK1 (Homo sapiens, UniProt P53350) (assay: Biochemical Characterization Assay: HTRF kinase assay, GST-PLK1 phosphorylation of GST-p53). Details: GST-PLK1, GST-p53 substrate.
T1 construct: Full-length, active GST-PLK1 is purified from Sf9 insect cells; made in house; host or cells: Sf9 insect cells
T1 sequence (P53350 whole entry): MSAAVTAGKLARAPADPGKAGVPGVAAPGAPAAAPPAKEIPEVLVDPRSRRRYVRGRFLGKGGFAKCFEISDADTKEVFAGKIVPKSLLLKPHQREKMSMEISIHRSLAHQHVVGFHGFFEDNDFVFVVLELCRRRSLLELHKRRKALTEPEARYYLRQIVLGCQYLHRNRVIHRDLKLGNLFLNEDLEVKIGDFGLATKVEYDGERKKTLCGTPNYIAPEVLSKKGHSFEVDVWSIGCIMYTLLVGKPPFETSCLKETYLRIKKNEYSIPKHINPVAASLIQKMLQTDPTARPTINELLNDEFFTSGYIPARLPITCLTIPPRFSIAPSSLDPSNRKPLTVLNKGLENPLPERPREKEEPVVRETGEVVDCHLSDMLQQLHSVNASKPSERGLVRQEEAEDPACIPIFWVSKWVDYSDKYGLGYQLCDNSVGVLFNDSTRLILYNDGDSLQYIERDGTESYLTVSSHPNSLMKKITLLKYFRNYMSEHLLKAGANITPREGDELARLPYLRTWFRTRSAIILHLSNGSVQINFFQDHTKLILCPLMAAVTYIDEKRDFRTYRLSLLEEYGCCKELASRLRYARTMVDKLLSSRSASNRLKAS
How it was run: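 HTRF read-out of p53 phosphorylation: after EDTA stop, anti-phospho-p53 antibody bound 30 min at 37 °C in HEPES pH 7 buffer, with Eu-anti-rabbit/APC-anti-GST detection. Kinase step used full-length Sf9-expressed GST-PLK1 (3 ug/mL) and E. coli GST-p53 substrate, 35 min at 37 °C.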
`CCOc1cc(C(=O)NC2CCN(C)CC2)ccc1Nc1ncc2c(n1)N(C1CCCC1)CC(F)(F)C(=O)N2C` [Example I-215, 4-(9-cyclopentyl-7,7-difluoro-5-methyl-6-oxo-6,7,8,9-tetrahydro-5H-pyrimido[4,5-b][1,4]diazepin-2-ylamino)-3-ethoxy-N-(1-methyl-piperidin-4-yl)-benzamide] showed an IC50 of 1 to 50 nM.
For `CCN1CCC(NC(=O)c2ccc(Nc3ncc4c(n3)N(C3CCCC3)CC(F)(F)C(=O)N4C)c(C)c2)CC1` [Example I-186, 4-(9-cyclopentyl-7,7-difluoro-5-methyl-6-oxo-6,7,8,9-tetrahydro-5H-pyrimido[4,5-b][1,4]diazepin-2-ylamino)-N-(1-ethyl-piperidin-4-yl)-3-methyl-benzamide], the IC50 was 1 to 50 nM.
Work on `COc1cc(C(=O)NC2CCNCC2)c(F)cc1Nc1ncc2c(n1)N(C1CCCC1)CC(F)(F)C(=O)N2C` [Example I-178, 4-(9-cyclopentyl-7,7-difluoro-5-methyl-6-oxo-6,7,8,9-tetrahydro-5H-pyrimido[4,5-b][1,4]diazepin-2-ylamino)-2-fluoro-5-methoxy-N-piperidin-4-yl-benzamide] yielded an IC50 of 1 to 50 nM.
With `Cc1cc(C(=O)NCCCN(C)C)ccc1Nc1ncc2c(n1)N(C1CCCC1)CC(F)(F)C(=O)N2C` [Example I-189, 4-(9-cyclopentyl-7,7-difluoro-5-methyl-6-oxo-6,7,8,9-tetrahydro-5H-pyrimido[4,5-b][1,4]diazepin-2-ylamino)-N-(3-dimethylamino-propyl)-3-methyl-benzamide] the IC50 was 1 to 50 nM.
Work on `COc1cc(C(=O)N[C@H]2CC[C@H](N3CCN(CC4CC4)CC3)CC2)ccc1Nc1ncc2c(n1)N(C1CCCC1)CC(F)(F)C(=O)N2C` [Example I-300, 4-(9-cyclopentyl-7,7-difluoro-5-methyl-6-oxo-6,7,8,9-tetrahydro-5H-pyrimido[4,5-b][1,4]diazepin-2-ylamino)-N-[trans-4-(4-cyclopropylmethyl-piperazin-1-yl)-cyclohexyl]-3-methoxy-benzamide] yielded an IC50 of 1 to 50 nM.
`COc1cc(C(=O)NC2CCN(S(C)(=O)=O)CC2)ccc1Nc1ncc2c(n1)N(C1CCCCC1)CC(F)(F)C(=O)N2C` [Example I-268, 4-(9-cyclohexyl-7,7-difluoro-5-methyl-6-oxo-6,7,8,9-tetrahydro-5H-pyrimido[4,5-b][1,4]diazepin-2-ylamino)-N-(1-methanesulfonyl-piperidin-4-yl)-3-methoxy-benzamide] showed an IC50 of 51 to 500 nM.
In the case of `CN1C(=O)C(F)(F)CN(C2CCCC2)c2nc(Nc3cc(F)c(C(=O)NC4CCN(C(=O)OC(C)(C)C)CC4)cc3F)ncc21` [Example I-239, 4-[4-(9-cyclopentyl-7,7-difluoro-5-methyl-6-oxo-6,7,8,9-tetrahydro-5H-pyrimido[4,5-b][1,4]diazepin-2-ylamino)-2,5-difluoro-benzoylamino]-piperidine-1-carboxylic acid tert-butyl ester], the IC50 is reported as 51 to 500 nM.
`CCN1C(=O)C(F)(F)CN(C2CCCC2)c2nc(Nc3ccc(C(=O)NC4CCN(C)CC4)cc3OC)ncc21` [Example I-159, 4-(9-cyclopentyl-5-ethyl-7,7-difluoro-6-oxo-6,7,8,9-tetrahydro-5H-pyrimido[4,5-b][1,4]diazepin-2-ylamino)-3-methoxy-N-(1-methyl-piperidin-4-yl)-benzamide] showed an IC50 of 51 to 500 nM.
Work on `CN1C(=O)C(F)(F)CN(C2CCCC2)c2nc(Nc3cc(F)c(C(N)=O)cc3F)ncc21` [Example I-241, 4-(9-cyclopentyl-7,7-difluoro-5-methyl-6-oxo-6,7,8,9-tetrahydro-5H-pyrimido[4,5-b][1,4]diazepin-2-ylamino)-2,5-difluoro-benzamide] yielded an IC50 of 1 to 50 nM.
`Cc1cc(C(N)=O)ccc1Nc1ncc2c(n1)N(C1CCCC1)CC(F)(F)C(=O)N2C` [Example I-193, 4-(9-cyclopentyl-7,7-difluoro-5-methyl-6-oxo-6,7,8,9-tetrahydro-5H-pyrimido[4,5-b][1,4]diazepin-2-ylamino)-3-methyl-benzamide] showed an IC50 of 1 to 50 nM.
Molecule `Cc1cc(C(=O)NC2CCN(C)CC2)ccc1Nc1ncc2c(n1)N(C1CCCC1)CC(F)(F)C(=O)N2C` [Example I-185, 4-(9-cyclopentyl-7,7-difluoro-5-methyl-6-oxo-6,7,8,9-tetrahydro-5H-pyrimido[4,5-b][1,4]diazepin-2-ylamino)-3-methyl-N-(1-methyl-piperidin-4-yl)-benzamide] has an IC50 of 1 to 50 nM.

Same assay, conditions: GST-PLK1, GST-p53 substrate, ATP
In the case of `COc1cc(C(=O)NCCCNC(C)C)ccc1Nc1ncc2c(n1)N(C1CCCC1)CC(F)(F)C(=O)N2C` [Example I-46, 4-(9-cyclopentyl-7,7-difluoro-5-methyl-6-oxo-6,7,8,9-tetrahydro-5H-pyrimido[4,5-b][1,4]diazepin-2-ylamino)-N-(3-isopropylamino-propyl)-3-methoxy-benzamide], the IC50 is reported as 1 to 50 nM.
Work on `COc1cc(C(=O)NCCCN2CCN(C(=O)OC(C)(C)C)CC2)ccc1Nc1ncc2c(n1)N(C1CCCC1)CC(F)(F)C(=O)N2C` [Example I-94, 4-{3-[4-(9-cyclopentyl-7,7-difluoro-5-methyl-6-oxo-6,7,8,9-tetrahydro-5H-pyrimido[4,5-b][1,4]diazepin-2-ylamino)-3-methoxy-benzoylamino]-propyl}-piperazine-1-carboxylic acid tert-butyl ester] yielded an IC50 of 1 to 50 nM.
In the case of `COc1cc(C(=O)N[C@@H]2CCNC(=O)C2)ccc1Nc1ncc2c(n1)N(C1CCCC1)CC(F)(F)C(=O)N2C` [Example I-89, R-4-(9-cyclopentyl-7,7-difluoro-5-methyl-6-oxo-6,7,8,9-tetrahydro-5H-pyrimido[4,5-b][1,4]diazepin-2-ylamino)-3-methoxy-N-(2-oxo-piperidin-4-yl)-benzamide], the IC50 is reported as 1 to 50 nM.
With `COc1cc(C(=O)N[C@@H]2CCN(C(=O)OCc3ccccc3)C[C@H]2OC)ccc1Nc1ncc2c(n1)N(C1CCCC1)CC(F)(F)C(=O)N2C` (racemic) [Example I-55, rac-(3R,4R)-4-[4-(9-cyclopentyl-7,7-difluoro-5-methyl-6-oxo-6,7,8,9-tetrahydro-5H-pyrimido[4,5-b][1,4]diazepin-2-ylamino)-3-methoxy-benzoylamino]-3-methoxy-piperidine-1-carboxylic acid benzyl ester] the IC50 was 51 to 500 nM.
`COc1cc(C(=O)N[C@H]2CCC[C@H]2C(N)=O)ccc1Nc1ncc2c(n1)N(C1CCCC1)CC(F)(F)C(=O)N2C` [Example I-44, N-[(1S,2R)-(2-carbamoyl-cyclopentyl)]-4-(9-cyclopentyl-7,7-difluoro-5-methyl-6-oxo-6,7,8,9-tetrahydro-5H-pyrimido[4,5-b][1,4]diazepin-2-ylamino)-3-methoxy-benzamide] showed an IC50 of 1 to 50 nM.
For `COc1cc(C(=O)NC2CCNCC2)ccc1Nc1ncc2c(n1)N(C1CCCC1)CC(F)(F)C(=O)N2C` [Example I-72, 4-(9-cyclopentyl-7,7-difluoro-5-methyl-6-oxo-6,7,8,9-tetrahydro-5H-pyrimido[4,5-b][1,4]diazepin-2-ylamino)-3-methoxy-N-piperidin-4-yl-benzamide], the IC50 was 1 to 50 nM.
`CN1CCC(NC(=O)c2ccc(Nc3ncc4c(n3)N(C3CCC3)CC(F)(F)C(=O)N4C)cc2)CC1` [Example I-16, 4-(9-cyclobutyl-7,7-difluoro-5-methyl-6-oxo-6,7,8,9-tetrahydro-5H-pyrimido[4,5-b][1,4]diazepin-2-ylamino)-N-(1-methyl-piperidin-4-yl)-benzamide] was tested, and the IC50 was 1 to 50 nM.
For `COc1cc(C(=O)NC2CC2)ccc1Nc1ncc2c(n1)N(C1CCCC1)CC(F)(F)C(=O)N2C` [Example I-26, 4-(9-cyclopentyl-7,7-difluoro-5-methyl-6-oxo-6,7,8,9-tetrahydro-5H-pyrimido[4,5-b][1,4]diazepin-2-ylamino)-N-cyclopropyl-3-methoxy-benzamide], the IC50 was 1 to 50 nM.
`COc1cc(C(=O)NC2CCN(C(C)=O)CC2)ccc1Nc1ncc2c(n1)N(C1CCCC1)CC(F)(F)C(=O)N2C` [Example I-102, N-(1-acetyl-piperidin-4-yl)-4-(9-cyclopentyl-7,7-difluoro-5-methyl-6-oxo-6,7,8,9-tetrahydro-5H-pyrimido[4,5-b][1,4]diazepin-2-ylamino)-3-methoxy-benzamide] showed an IC50 of 1 to 50 nM.
In the case of `COc1cc(C(=O)N2CCCCC2)ccc1Nc1ncc2c(n1)N(C1CCCC1)CC(F)(F)C(=O)N2C` [Example I-126, 9-cyclopentyl-7,7-difluoro-2-[2-methoxy-4-(piperidine-1-carbonyl)-phenylamino]-5-methyl-5,7,8,9-tetrahydro-pyrimido[4,5-b][1,4]diazepin-6-one], the IC50 is reported as 51 to 500 nM.
`COc1cc(C(=O)NC2CCN(C(=O)OCC3c4ccccc4-c4ccccc43)CC2)ccc1Nc1ncc2c(n1)N(C1CCCC1)CC(F)(F)C(=O)N2C` [Example I-70, 4-[4-(9-cyclopentyl-7,7-difluoro-5-methyl-6-oxo-6,7,8,9-tetrahydro-5H-pyrimido[4,5-b][1,4]diazepin-2-ylamino)-3-methoxy-benzoylamino]-piperidine-1-carboxylic acid 9H-fluoren-9-ylmethyl ester] gave an IC50 of 1 to 50 nM.
`COc1cc(C(=O)NC2CCN(C)CC2)ccc1Nc1ncc2c(n1)N(C1CCCC1)CC(F)(F)C(=O)N2` [Example I-137, 4-(9-cyclopentyl-7,7-difluoro-6-oxo-6,7,8,9-tetrahydro-5H-pyrimido[4,5-b][1,4]diazepin-2-ylamino)-3-methoxy-N-(1-methyl-piperidin-4-yl)-benzamide] gave an IC50 of 51 to 500 nM.
`CCOCCNC(=O)c1ccc(Nc2ncc3c(n2)N(C2CCCC2)CC(F)(F)C(=O)N3C)c(OC)c1` [Example I-40, 4-(9-cyclopentyl-7,7-difluoro-5-methyl-6-oxo-6,7,8,9-tetrahydro-5H-pyrimido[4,5-b][1,4]diazepin-2-ylamino)-N-(2-ethoxy-ethyl)-3-methoxy-benzamide] gave an IC50 of 1 to 50 nM.
In the case of `COc1cc(C(=O)NCC2CCNC2)ccc1Nc1ncc2c(n1)N(C1CCCC1)CC(F)(F)C(=O)N2C` (stereo not shown) [Example I-93, 4-(9-cyclopentyl-7,7-difluoro-5-methyl-6-oxo-6,7,8,9-tetrahydro-5H-pyrimido[4,5b][1,4]diazepin-2-ylamino)-3-methoxy-N-pyrrolidin-3-ylmethyl-benzamide], the IC50 is reported as 1 to 50 nM.
